Test results taken from the supplement of paper PMC11451515.

Test system: P12-Ichikawa
Experiment: cell viability relative to DMSO control; higher = less cytotoxic
Conditions: 48 h
Outline: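 Viability, reported as a per-plate percentage of DMSO wells with cell-free wells as background, came from CellTiter-Glo One luminescence. Reading took place after 48 h at 37°C. Before that, NOMO1 or SEM (500 cells/well) or P12-Ichikawa (1000 cells/well) leukemia cells, adapted for at least four passages in each medium, were seeded in 1536-well plates (5 μl) and pin-dosed with library compounds in DMSO, 47 μM to 0.79 nM over 11 threefold points.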

[1] = HPLM + 10% dialyzed FBS, 0.000781 µM
[2] = HPLM + 10% dialyzed FBS, 0.00234 µM
[3] = HPLM + 10% dialyzed FBS, 0.00702 µM
[4] = HPLM + 10% dialyzed FBS, 0.0211 µM
[5] = HPLM + 10% dialyzed FBS, 0.0632 µM
[6] = HPLM + 10% dialyzed FBS, 0.19 µM
[7] = HPLM + 10% dialyzed FBS, 0.569 µM
[8] = HPLM + 10% dialyzed FBS, 1.71 µM
[9] = HPLM + 10% dialyzed FBS, 5.12 µM
[10] = HPLM + 10% dialyzed FBS, 15.4 µM
[11] = HPLM + 10% dialyzed FBS, 46.1 µM
[12] = RPMI 5 mM glucose + 10% FBS, 0.000781 µM
[13] = RPMI 5 mM glucose + 10% FBS, 0.00234 µM
[14] = RPMI 5 mM glucose + 10% FBS, 0.00702 µM
[15] = RPMI 5 mM glucose + 10% FBS, 0.0211 µM
[16] = RPMI 5 mM glucose + 10% FBS, 0.0632 µM
[17] = RPMI 5 mM glucose + 10% FBS, 0.19 µM
[18] = RPMI 5 mM glucose + 10% FBS, 0.569 µM
[19] = RPMI 5 mM glucose + 10% FBS, 1.71 µM
[20] = RPMI 5 mM glucose + 10% FBS, 5.12 µM
[21] = RPMI 5 mM glucose + 10% FBS, 15.4 µM
[22] = RPMI 5 mM glucose + 10% FBS, 46.1 µM
[23] = RPMI 5 mM glucose + 10% dialyzed FBS, 0.000781 µM
[24] = RPMI 5 mM glucose + 10% dialyzed FBS, 0.00234 µM
[25] = RPMI 5 mM glucose + 10% dialyzed FBS, 0.00702 µM
[26] = RPMI 5 mM glucose + 10% dialyzed FBS, 0.0211 µM
[27] = RPMI 5 mM glucose + 10% dialyzed FBS, 0.0632 µM
[28] = RPMI 5 mM glucose + 10% dialyzed FBS, 0.19 µM
[29] = RPMI 5 mM glucose + 10% dialyzed FBS, 0.569 µM
[30] = RPMI 5 mM glucose + 10% dialyzed FBS, 1.71 µM
[31] = RPMI 5 mM glucose + 10% dialyzed FBS, 5.12 µM
[32] = RPMI 5 mM glucose + 10% dialyzed FBS, 15.4 µM
[33] = RPMI 5 mM glucose + 10% dialyzed FBS, 46.1 µM

SMILES	cell viability [1]	cell viability [2]	cell viability [3]	cell viability [4]	cell viability [5]	cell viability [6]	cell viability [7]	cell viability [8]	cell viability [9]	cell viability [10]	cell viability [11]	cell viability [12]	cell viability [13]	cell viability [14]	cell viability [15]	cell viability [16]	cell viability [17]	cell viability [18]	cell viability [19]	cell viability [20]	cell viability [21]	cell viability [22]	cell viability [23]	cell viability [24]	cell viability [25]	cell viability [26]	cell viability [27]	cell viability [28]	cell viability [29]	cell viability [30]	cell viability [31]	cell viability [32]	cell viability [33]
CC(C)(C)OC(=O)N[C@H]1CCCCC/C=C\[C@@H]2C[C@@]2(C(=O)N[S+](=O)([O-])C2CC2)NC(=O)[C@@H]2C[C@@H](OC(=O)N3Cc4cccc(F)c4C3)CN2C1=O	108%	114%	108%	109%	112%	114%	115%	111%	108%	104%	87.1%	110%	108%	110%	108%	114%	112%	125%	114%	113%	104%	82.1%	95.2%	104%	117%	94.3%	105%	104%	112%	106%	94.2%	89.3%	80.5%
C[C@]12CC[C@@H]3c4ccc(O)cc4CC[C@H]3[C@@H]1[C@@H](O)[C@@H](O)[C@@H]2O	119%	117%	119%	112%	120%	124%	122%	120%	119%	125%	124%	105%	113%	109%	104%	123%	118%	122%	121%	126%	131%	113%	111%	120%	118%	115%	120%	127%	127%	133%	127%	129%	135%
CC(C)C1NC(=O)C(NC(=O)C2=C3\N=C\4/C(=C(C)\C(=O)\C(=C4C(=O)NC5C(C)OC(=O)C(C(C)C)N(C)C(=O)CN(C)C(=O)C6CCCN6C(=O)C(NC5=O)C(C)C)N)OC3=C(C)C=C2)C(C)OC(=O)C(C(C)C)N(C)C(=O)CN(C)C(=O)C7CCCN7C1=O (configuration not stated)	8.89%	7.61%	7.74%	7.98%	8.48%	7.48%	8.02%	5.74%	3.17%	4.3%	1.52%	7.97%	8.99%	7.91%	6.03%	5.96%	6.1%	5.29%	3.26%	1.15%	2.04%	1.27%	9.93%	10.6%	9.2%	10.8%	7.89%	8.14%	8.28%	7.16%	6.45%	4.57%	3.47%
O=C(O)Cn1nnc(-c2cc(N3CCC(Oc4cc(F)ccc4Br)CC3)no2)n1	97.6%	114%	107%	114%	116%	123%	105%	112%	113%	12%	11%	103%	112%	109%	118%	118%	122%	112%	118%	112%	18%	13.4%	93.2%	117%	111%	115%	118%	116%	113%	116%	114%	45.6%	17.9%
CN[C@@H](C)[C@H]1[C@H](O)C[C@@]2(C)[C@@H]3CC[C@H]4C(C)(C)[C@@H](NC)CC[C@@]45C[C@@]35CC[C@]12C	92.3%	97.3%	84.8%	98.4%	96.5%	100%	98.8%	102%	103%	97%	96.3%	95.4%	89%	81.6%	94.4%	103%	98.8%	89.3%	105%	81.9%	105%	91.9%	85%	91%	83.8%	90.1%	93.2%	98.8%	89.3%	92.6%	81.7%	93.8%	79.4%
O=c1[nH]c(=O)n([C@H]2C[C@H](O)[C@@H](CO)O2)cc1/C=C/Br	103%	126%	105%	115%	102%	61.2%	60.8%	70%	75.8%	61.4%	47.8%	97.6%	107%	103%	103%	105%	110%	108%	106%	107%	110%	106%	92.6%	104%	109%	118%	112%	106%	103%	108%	108%	102%	100%
CC(C)c1noc(N2CCC(COc3ccc(-c4ccc([S+](C)(=O)[O-])cc4)nc3)CC2)n1	117%	117%	113%	120%	122%	114%	112%	106%	103%	98.7%	103%	118%	120%	119%	112%	119%	109%	110%	118%	111%	113%	101%	117%	105%	120%	108%	114%	110%	106%	110%	100%	112%	97.4%
CNC(=O)c1ccc(N2C(=S)N(c3cnc(C#N)c(C(F)(F)F)c3)C(=O)C23CCC3)cc1F	94.2%	109%	109%	109%	112%	111%	111%	114%	109%	95%	96.3%	86.7%	95.7%	97.5%	106%	109%	107%	117%	113%	111%	92.8%	96.1%	90.5%	111%	118%	118%	118%	119%	116%	123%	126%	128%	101%
C[N]1C=C(C=N1)C2=C3\C=N/NC(=O)C4=C3C(=CC(=C4)NC(=O)[C@H](N)C5CCCCC5)[NH]2	103%	103%	99.7%	100%	99.7%	103%	94.5%	81.1%	65.5%	45.1%	12.3%	98.4%	101%	99.1%	99.9%	97.3%	98.5%	92.7%	85.3%	61.7%	21.8%	7.78%	96.2%	98%	95.2%	90.5%	94.7%	102%	85.4%	79.6%	58.8%	18.4%	11.5%
CC[C@H](/C=C/[C@@H](C)[C@H]1CC[C@H]2[C@@H]3CC=C4C[C@@H](O)CC[C@]4(C)[C@H]3CC[C@]12C)C(C)C	100%	109%	94.3%	99.3%	104%	101%	99.5%	93.2%	87.7%	85.9%	87.5%	92.9%	94.3%	97.1%	95.9%	105%	96.3%	94.9%	91.3%	89.6%	83.9%	93.7%	92.7%	95.2%	93%	87.3%	91.8%	94.6%	88.4%	87.8%	87%	85.2%	86.6%
O=C1c2ccccc2-[n+]2ccc3c([nH]c4ccccc43)c21	101%	108%	112%	105%	105%	106%	101%	105%	95.4%	2.96%	3.56%	98.1%	106%	105%	114%	104%	107%	107%	112%	101%	2.99%	2.29%	102%	115%	111%	108%	107%	111%	100%	113%	107%	3.39%	2.85%
O=C1NC(=O)/C(=C/c2ccc3nccc(-c4ccncc4)c3c2)S1	112%	120%	122%	115%	98.4%	95.9%	83.8%	68.4%	57.4%	36.1%	5.85%	109%	107%	103%	109%	96.2%	74.5%	64.2%	50.2%	32.6%	17.1%	7.42%	104%	109%	114%	115%	98.8%	83.3%	68.2%	51.1%	34.3%	20.6%	6.67%
CC(C)(O)CC[C@@H](O)[C@](C)(O)[C@H]1CC[C@@]2(O)C/3=C/C(=O)[C@@H]4C[C@@H](O)[C@@H](O)C[C@]4(C)[C@H]3CC[C@]12C	100%	103%	94.5%	96.6%	102%	98.4%	88.6%	93.6%	89.2%	89.6%	87.4%	90.7%	96.3%	93.4%	96.3%	86.7%	104%	92.2%	94.1%	88%	86%	96.8%	95%	90.6%	90.8%	89%	94.6%	89.2%	88.8%	86.9%	91.2%	83.3%	89.4%
OC[C@H]1O[C@H]([C@H](O)[C@@H]1O)N2\C=C/C(=O)NC2=O	108%	103%	99.1%	111%	101%	104%	109%	103%	99.4%	110%	99.6%	104%	109%	103%	103%	97.6%	104%	117%	95.3%	107%	96%	90.8%	101%	89.1%	95.9%	101%	102%	98.3%	109%	97.1%	96%	89.5%	92.4%
